Assay results published in patent US20250129070A1, “BIFUNCTIONAL ANDROGEN RECEPTOR COMPOUNDS” (priority 2023, published 2025).

Experiments:
[1] = test system: AR / CBP ternary complex; assay: Ternary complex formation assay (sandwich ELISA, AR capture / CBP detection) in VCaP cell lysates; assay type: cell-based; details: 1.5 hours treatment, sandwich ELISA (AR capture, CBP or p300 detection)
Summary of the method: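 Anti-AR (AR 441)-coated plates capture AR from lysates of VCaP cells grown ≥3 days at 50K/well in 5% charcoal-stripped FBS, dosed with bifunctional for 1.5 h and lysed 30 min at 4 °C. Co-captured CBP/p300 is probed with rabbit mAb and HRP anti-rabbit, then QuantaRed fluorescence (570/585) is read at 0, 5 and 15 min.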

[2] = test system: VCaP cells; assay: VCaP growth inhibition assay; assay type: cell-based; details: 30 pM R1881, 9 days, CTG
Summary of the method: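 Growth read by CTG luminescence after 9-day exposure to compound (final 100 nM–10 fM, 1:5 steps) plus 30 pM R1881, in phenol red-free DMEM with 5% CSS. Cells pre-incubated 72 h before dosing; IC50 by nonlinear 4-parameter regression.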

With `CC(=O)N1CCc2c(c(N3CCCc4cc(-c5cnn(C)c5)c(C(F)F)cc43)nn2C2CCN(CC3CCN(c4ncc(C(=O)NC5C(C)(C)C(Oc6ccc(C#N)c(Cl)c6)C5(C)C)cn4)CC34CC4)CC2)C1` (stereo not drawn) [Compound 357, 2-[8-[[4-[5-acetyl-3-[7-(difluoromethyl)-6-(1-methylpyrazol-4-yl)-3,4-dihydro-2H-quinolin-1-yl]-6,7-dihydro-4H-pyrazolo[4,3-c]pyridin-1-yl]-1-piperidyl]methyl]-5-azaspiro[2.5]octan-5-yl]-N-[3-(3-chloro-4-cyano-phenoxy)-2,2,4,4-tetramethyl-cyclobutyl]pyrimidine-5-carboxamide] the EC50 [1] was < 1 nM and the IC50 [2] was ≤ 0.1 nM.
Work on `CC(=O)N1CCc2c(c(N3CCCc4cc(-c5cnn(C)c5)c(C(F)F)cc43)nn2C2CC3(C2)CC2(CCN(c4ncc(C(=O)NC5C(C)(C)C(Oc6ccc(C#N)c(Cl)c6)C5(C)C)cn4)CC2)C3)C1` (stereo not drawn) [Compound 287, 2-[2-[5-acetyl-3-[7-(difluoromethyl)-6-(1-methylpyrazol-4-yl)-3,4-dihydro-2H-quinolin-1-yl]-6,7-dihydro-4H-pyrazolo[4,3-c]pyridin-1-yl]-9-azadispiro[3.1.5^6.1^4]dodecan-9-yl]-N-[3-(3-chloro-4-cyano-phenoxy)-2,2,4,4-tetramethyl-cyclobutyl]pyrimidine-5-carboxamide] yielded an EC50 [1] of 1 to 10 nM and an IC50 [2] of 1 to 100 nM.
With `COc1cc(OC2C(C)(C)C(NC(=O)c3ccc(OC4CC5(C4)CC(N4CCC(n6nc(N7CCCc8cc(-c9cnn(C)c9)c(C(F)F)cc87)c7c6CCN(C(C)=O)C7)CC4)C5)cc3)C2(C)C)ccc1C#N` (stereo not drawn) [Compound 386, 4-[6-[4-[5-acetyl-3-[7-(difluoromethyl)-6-(1-methylpyrazol-4-yl)-3,4-dihydro-2H-quinolin-1-yl]-6,7-dihydro-4H-pyrazolo[4,3-c]pyridin-1-yl]-1-piperidyl]spiro[3.3]heptan-2-yl]oxy-N-[3-(4-cyano-3-methoxy-phenoxy)-2,2,4,4-tetramethyl-cyclobutyl]benzamide] the EC50 [1] was < 1 nM and the IC50 [2] was 0.1 to 1 nM.
`COc1cc(OC2C(C)(C)C(NC(=O)c3ccc(N4CCC(CN5CCC(n6nc(N7CCCc8cc(C#N)c(C(F)F)cc87)c7c6CCN(C(C)=O)C7)CC5)C(C)(C)C4)cc3)C2(C)C)ccc1C#N` (stereo not drawn) [Compound 451, 4-[4-[[4-[5-acetyl-3-[6-cyano-7-(difluoromethyl)-3,4-dihydro-2H-quinolin-1-yl]-6,7-dihydro-4H-pyrazolo[4,3-c]pyridin-1-yl]-1-piperidyl]methyl]-3,3-dimethyl-1-piperidyl]-N-[3-(4-cyano-3-methoxy-phenoxy)-2,2,4,4-tetramethyl-cyclobutyl]benzamide] was tested, and the EC50 [1] was < 1 nM and the IC50 [2] was 0.1 to 1 nM.
For `CC(=O)N1CCc2c(c(N3CCCc4cc(-c5cnn(C)c5)c(C(F)F)cc43)nn2C2CCN([C@@H]3CCCN(c4ncc(C(=O)NC5C(C)(C)C(Oc6ccc(C#N)c(Cl)c6)C5(C)C)cn4)C3)CC2)C1` (stereo partly drawn) [Compound 398, 2-[(3R)-3-[4-[5-acetyl-3-[7-(difluoromethyl)-6-(1-methylpyrazol-4-yl)-3,4-dihydro-2H-quinolin-1-yl]-6,7-dihydro-4H-pyrazolo[4,3-c]pyridin-1-yl]-1-piperidyl]-1-piperidyl]-N-[3-(3-chloro-4-cyano-phenoxy)-2,2,4,4-tetramethyl-cyclobutyl]pyrimidine-5-carboxamide], the EC50 [1] was 1 to 10 nM and the IC50 [2] was 1 to 100 nM.
`COc1cc(OC2C(C)(C)C(NC(=O)c3ccc(N4CC(OC5CCC(n6nc(N7CCCc8cc(-c9cnn(C)c9)c(C(F)F)cc87)c7c6CCN(C(C)=O)C7)CC5)C4)cc3)C2(C)C)ccc1C#N` (stereo not drawn) [Compound 342, 4-[3-[4-[5-acetyl-3-[7-(difluoromethyl)-6-(1-methylpyrazol-4-yl)-3,4-dihydro-2H-quinolin-1-yl]-6,7-dihydro-4H-pyrazolo[4,3-c]pyridin-1-yl]cyclohexoxy]azetidin-1-yl]-N-[3-(4-cyano-3-methoxy-phenoxy)-2,2,4,4-tetramethyl-cyclobutyl]benzamide] was tested, and the EC50 [1] was < 1 nM and the IC50 [2] was 0.1 to 1 nM.
With `CC(=O)N1CCc2c(c(N3CCCc4cc(-c5cnn(C)c5)c(C(F)F)cc43)nn2C2CCN(CC#Cc3ncc(C(=O)NC4C(C)(C)C(Oc5ccc(C#N)c(Cl)c5)C4(C)C)cn3)CC2)C1` (stereo not drawn) [Compound 19, 2-[3-[4-[5-acetyl-3-[7-(difluoromethyl)-6-(1-methylpyrazol-4-yl)-3,4-dihydro-2H-quinolin-1-yl]-6,7-dihydro-4H-pyrazolo[4,3-c]pyridin-1-yl]-1-piperidyl]prop-1-ynyl]-N-[3-(3-chloro-4-cyano-phenoxy)-2,2,4,4-tetramethyl-cyclobutyl]pyrimidine-5-carboxamide] the EC50 [1] was < 1 nM and the IC50 [2] was 0.1 to 1 nM.
For `COc1cc(OC2C(C)(C)C(NC(=O)c3ccc(N4CCC(OC5CCC(n6nc(N7CCCc8cc(-c9cnn(C)c9)c(C(F)F)cc87)c7c6CCN(C(C)=O)C7)CC5)CC4)cc3)C2(C)C)ccc1C#N` (stereo not drawn) [Compound 308, 4-[4-[4-[5-acetyl-3-[7-(difluoromethyl)-6-(1-methylpyrazol-4-yl)-3,4-dihydro-2H-quinolin-1-yl]-6,7-dihydro-4H-pyrazolo[4,3-c]pyridin-1-yl]cyclohexoxy]-1-piperidyl]-N-[3-(4-cyano-3-methoxy-phenoxy)-2,2,4,4-tetramethyl-cyclobutyl]benzamide], the EC50 [1] was < 1 nM and the IC50 [2] was ≤ 0.1 nM.
Compound `COc1cc(OC2C(C)(C)C(NC(=O)c3ccc(N4CC5(CCC(C6CCC(n7nc(N8CCCc9cc(-c%10cnn(C)c%10)c(C(F)F)cc98)c8c7CCN(C(C)=O)C8)CC6)CC5)C4)cc3)C2(C)C)ccc1C#N` (stereo not drawn) [Compound 378, 4-[7-[4-[5-acetyl-3-[7-(difluoromethyl)-6-(1-methylpyrazol-4-yl)-3,4-dihydro-2H-quinolin-1-yl]-6,7-dihydro-4H-pyrazolo[4,3-c]pyridin-1-yl]cyclohexyl]-2-azaspiro[3.5]nonan-2-yl]-N-[3-(4-cyano-3-methoxy-phenoxy)-2,2,4,4-tetramethyl-cyclobutyl]benzamide] has an EC50 [1] of 1 to 10 nM and an IC50 [2] of 1 to 100 nM.
With `COc1cc(OC2C(C)(C)C(NC(=O)c3ccc(OC4CCC5(CC4)CC(N4CCC(n6nc(N7CCCc8cc(-c9cnn(C)c9)c(C(F)F)cc87)c7c6CCN(C(C)=O)C7)CC4)C5)cc3)C2(C)C)ccc1C#N` (stereo not drawn) [Compound 396, 4-[2-[4-[5-acetyl-3-[7-(difluoromethyl)-6-(1-methylpyrazol-4-yl)-3,4-dihydro-2H-quinolin-1-yl]-6,7-dihydro-4H-pyrazolo[4,3-c]pyridin-1-yl]-1-piperidyl]spiro[3.5]nonan-7-yl]oxy-N-[3-(4-cyano-3-methoxy-phenoxy)-2,2,4,4-tetramethyl-cyclobutyl]benzamide] the EC50 [1] was < 1 nM and the IC50 [2] was 0.1 to 1 nM.
With `CC(=O)N1CCc2c(c(N3CCCc4cc(C#N)c(C(F)F)cc43)nn2C2CCN(CC3C(C)CN(c4ncc(C(=O)NC5C(C)(C)C(Oc6ccc(C#N)c(Cl)c6)C5(C)C)cn4)CC3C)CC2)C1` (stereo not drawn) [Compound 458, 2-[4-[[4-[5-acetyl-3-[6-cyano-7-(difluoromethyl)-3,4-dihydro-2H-quinolin-1-yl]-6,7-dihydro-4H-pyrazolo[4,3-c]pyridin-1-yl]-1-piperidyl]methyl]-3,5-dimethyl-1-piperidyl]-N-[3-(3-chloro-4-cyano-phenoxy)-2,2,4,4-tetramethyl-cyclobutyl]pyrimidine-5-carboxamide] the EC50 [1] was < 1 nM and the IC50 [2] was 0.1 to 1 nM.
`COc1cc(OCC(C)(C)[C@H](NC(=O)c2ccc(N3CCN(CC4CCC(n5nc(N6CCCc7cc(-c8cnn(C)c8)c(C(F)F)cc76)c6c5CCN(C(C)=O)C6)CC4)CC3)cc2)C(C)C)ccc1C#N` (stereo partly drawn) [Compound 317, 4-[4-[[4-[5-acetyl-3-[7-(difluoromethyl)-6-(1-methylpyrazol-4-yl)-3,4-dihydro-2H-quinolin-1-yl]-6,7-dihydro-4H-pyrazolo[4,3-c]pyridin-1-yl]cyclohexyl]methyl]piperazin-1-yl]-N-[(1R)-3-(4-cyano-3-methoxy-phenoxy)-1-isopropyl-2,2-dimethyl-propyl]benzamide] was tested, and the EC50 [1] was < 1 nM and the IC50 [2] was ≤ 0.1 nM.
In the case of `Cn1c(=O)n(C)c2cc(N3CCCc4cc(-c5ccc(CCC6CCN(c7ncc(C(=O)NC8C(C)(C)C(Oc9ccc(C#N)c(Cl)c9)C8(C)C)cn7)CC6)nc5)ncc43)ccc21` (stereo not drawn) [Compound 234, N-[3-(3-chloro-4-cyano-phenoxy)-2,2,4,4-tetramethyl-cyclobutyl]-2-[4-[2-[5-[1-(1,3-dimethyl-2-oxo-benzimidazol-5-yl)-3,4-dihydro-2H-1,7-naphthyridin-6-yl]-2-pyridyl]ethyl]-1-piperidyl]pyrimidine-5-carboxamide], the EC50 [1] is reported as 1 to 10 nM and the IC50 [2] is reported as > 100 nM.
With `CC(=O)N1CCc2c(c(N3CCCc4cc(-c5cnn(C)c5)c(C(F)(F)F)cc43)nn2C2CCN(CC3CCN(c4ncc(C(=O)NC5C(C)(C)C(Oc6ccc(C#N)c(Cl)c6)C5(C)C)cn4)CC3)CC2)C1` (stereo not drawn) [Compound 27, 2-[4-[[4-[5-acetyl-3-[6-(1-methylpyrazol-4-yl)-7-(trifluoromethyl)-3,4-dihydro-2H-quinolin-1-yl]-6,7-dihydro-4H-pyrazolo[4,3-c]pyridin-1-yl]-1-piperidyl]methyl]-1-piperidyl]-N-[3-(3-chloro-4-cyano-phenoxy)-2,2,4,4-tetramethyl-cyclobutyl]pyrimidine-5-carboxamide] the EC50 [1] was < 1 nM and the IC50 [2] was 0.1 to 1 nM.
In the case of `COc1cc(OC2C(C)(C)C(NC(=O)c3ccc(N4CCC(CCc5ccc(-c6cc7c(cc6C(F)F)N(c6nn(C8CCOCC8)c8c6CN(C(C)=O)CC8)CCC7)cn5)CC4)cc3)C2(C)C)ccc1C#N` (stereo not drawn) [Compound 247, 4-[4-[2-[5-[1-(5-acetyl-1-tetrahydropyran-4-yl-6,7-dihydro-4H-pyrazolo[4,3-c]pyridin-3-yl)-7-(difluoromethyl)-3,4-dihydro-2H-quinolin-6-yl]-2-pyridyl]ethyl]-1-piperidyl]-N-[3-(4-cyano-3-methoxy-phenoxy)-2,2,4,4-tetramethyl-cyclobutyl]benzamide], the EC50 [1] is reported as < 1 nM and the IC50 [2] is reported as 0.1 to 1 nM.
